The source of these data is article PMC8777946, “New Analogs of Polyamine Toxins from Spiders and Wasps: Liquid Phase Fragment Synthesis and Evaluation of Antiproliferative Activity” (Molecules, 2022).

SMILES strings stand for the structures. Read-outs that look alike come from different tables or passages of the source.

Data set [1] concerns MDA-MB-231 breast cancer cells. Description: Antiproliferative activity on MDA-MB-231 breast cancer cells (24 h, cell count or MTT). The conditions noted are these: for IC50: read-out: IC50 MDA-MB-231; for times less cytotoxic to the MDA-MB-231 cells than the MCF-7 cells: ratio of IC50 values. The class given is cell-based. The method, then: (§1) The antiproliferative activity of the synthesized compounds was evaluated using MCF-7 and ΜDA-MB-231 breast carcinoma cells. MCF-7 cells are characterized by epithelial morphology, low metastatic potential, and low aggressiveness, and are estrogen receptor alpha (ERα)-positive, whereas MDA-MB-231cells are characterized by mesenchymal morphology, high metastatic potential, and high aggressiveness, and are ERβ-positive. The cells were treated for 24 h with compounds 1–10 in a range of concentrations, from 0 to 200 or 400 μM. In addition, the cells were treated with acid 21 alone and an equimolar mixture of acid 21 and Spd (the PA substructure of conjugate 2), to determine the effect of conjugation on the antiproliferative activity. The estimated IC50 values for these compounds are provided in Table 1 (see also Supplementary Material, Table S1). For the sake of comparison, the ΙC50 values of PATs HO-416b and Agel 416, determined previously, are included in Table 1. Calculated LogD values at pH 7.4, the physiological pH of blood serum, using ChemAxon’s Chemicalize platform are also included in Table 1.
(§2) MCF-7 and MDA-MB-231 breast cancer cell lines were purchased from the American Type Culture Collection (ATCC). All cells were routinely cultured in a humidified 95% air/5% CO2 incubator at 37 °C in complete medium Dulbecco’s Modified Eagle’s Medium (DMEM) supplemented with 10% (v/v) fetal bovine serum (FBS) 1.0 mM sodium pyruvate, 2 mM l-glutamine, and 100 IU/mL penicillin. The synthesized compounds were dissolved in ddH2O (or DMSO for compound […] and the equimolar mixture of compounds […] and Spd) at a final concentration of 10 mM and further dilutions were conducted with culture medium.
(§3) MCF-7 and ΜDA-MB-231 breast cancer cells were seeded in 12-well plates and were allowed to grow up to 60–70% confluence. After renewing the culture medium, cancer cells were treated for 24 h in serum-containing culture medium with compounds 1–10 in a range of concentrations, from 0 to 200 or 400 μM. In addition, cells were treated with acid 21 alone and an equimolar mixture of acid 21 and Spd in order to determine the effect of conjugation on the antiproliferative activity. Then, the surviving breast cancer cells were measured, either manually (for compounds Agel 416, HO-416b, 1-3, 6-7) or by measuring the absorbance following an MTT assay (for compounds 4-5, 8-10, 21 and 21+Spd), as described below in detail. The percentage of live cells was plotted against the log values of compound concentrations, and a non-linear fit plot was used to estimate the IC50 value for each compound.

Data set [2] deals with MCF-7 breast cancer cells. Description: Antiproliferative activity on MCF-7 breast cancer cells (24 h, cell count or MTT). The data set is classed as cell-based. To be noted: for IC50: read-out: IC50 MCF-7. The method, then: as §1, §2, §3
The subject of data set [3] is MCF-7 breast cancer cells. The conditions noted are these: 24 h treatment; ± SD; reference PATs, determined previously; cited from earlier work.
The test system of data set [4] is MCF-12A normal epithelial mammary cells. Nature of the data set: cells. The data set is classed as cell-based. The conditions noted are these: for IC50: Homo sapiens, MCF-12A, 24 h incubation, serum-free medium, MTT; for selectivity index (SI) for the MCF-7 cells: IC50 MCF-12A versus IC50 MCF-7; for selectivity index (SI) for the MDA-MB-231 cells: IC50 MCF-12A versus IC50 MDA-MB-231. How it is done:
(§4) The IC50 values of the tested compounds are summarized in Table 2 (see also Supplementary Material, Table S2).
(§5) […]. The chemical compounds were reconstituted in DMSO.
(§6) For the MTT [3-(4,5-dimethylthiazol-2-yl)-2,5-diphenyltetrazolium bromide] assay, cells were seeded in a 96-well plate (26.000 cells/well) for 48 h. Then, after overnight starvation through serum deprivation, cells were incubated for 24 h, with the chemical compounds at 100, 10, 1, and 0.1 μM concentrations in the MCF-12A culture medium deprived of serum. Next, MTT (5 mg/mL in sterile PBS) was added in an amount of 10% in the culture media volume for 4-h cell incubation at 37 °C. Subsequently, an MTT solubilization solution was added, in an amount equal to the original culture media volume (100 μL/well), and the formazan crystals were dissolved through thorough pipetting. The spectrophotometric measure of cells’ viability was performed in a Tecan (SPARK) spectrophotometer at an absorbance wavelength of 570 nm. Incubation with H2O2 was established as cytotoxicity positive control. The percentage of viability for each sample was calculated with respect to cells incubated with MCF-12A culture media (without serum) containing 2% DMSO (negative cytotoxicity control).

Another data set is described as follows: in vitro. To be noted: human, 24 h, MTT, read-out: % viability of MCF 12A. The data set is classed as cell-based. How it is done: as §4, §5, §6
Data set [5] deals with MDA-MB-231 breast cancer cells. The conditions noted are these: 24 h treatment; ± SD; reference PATs, determined previously; cited from earlier work.
Setting [6] is: Homo sapiens, MDA-MB-231, 24 h, 24 h treatment, serum-containing medium, manual count (1-3, 6-7) or MTT (4-5, 8-10, 21, 21+Spd), ± SD, tested as trifluoroacetate salts.
[7] abbreviates: Homo sapiens, MCF7, 24 h, 24 h treatment, serum-containing medium, manual count (1-3, 6-7) or MTT (4-5, 8-10, 21, 21+Spd), ± SD, tested as trifluoroacetate salts.
Setting [8] is: 24 h treatment, serum-containing medium, manual count (1-3, 6-7) or MTT (4-5, 8-10, 21, 21+Spd), ± SD, tested as trifluoroacetate salts.

For the molecule `CCCC(=O)N[C@@H](Cc1ccc(O)cc1)C(=O)NCCCCNCCCCNCCCCN` [Compound 7], the IC50 in data set [1] (setting [6]) and in data set [2] (setting [7]) was over 400 µM throughout.

In the case of `C#CC[C@H](NC(=O)c1ccc(C2(C(F)(F)F)N=N2)cc1)C(=O)NCCCNCCCNCCCCN` [Compound 10], the IC50 was over 200 µM in data set [1] (setting [6]) and 2.81 ± 1.64 µM in data set [2] (setting [7]).

In the case of `NCCCNCCCCNC(=O)Cc1c[nH]c2ccccc12` [Compound 2], the IC50 in data set [1] (setting [6]) was determined as 12.6 ± 0.57 µM; in data set [2] (setting [7]) it was 3.15 ± 0.25 µM. Further, the “times less active than HO-416b” value in data set [1] (MDA-MB-231 cells) amounted to 4 times; in data set [2] (MCF-7 cells), 35 times. Besides, the results for the “times more active than the mere combination of 21 and Spd” value in data set [1] (MDA-MB-231 cells) and in data set [2] (MCF-7 cells) were about 22 times and about 42 times, respectively.

Regarding `NCCCNCCCCNCCCNCCCNC(=O)Cc1c[nH]c2ccccc12` [Agel 416], the values for the IC50 in data set [3], in data set [4] and in data set [5] were 550 ± 20 nM, 184 µM and 3.31 ± 0.08 µM, respectively. The “times less cytotoxic to the MDA-MB-231 cells than the MCF-7 cells” value in data set [1] is on record as 6 times. For the same molecule, the “selectivity index (SI) for the MCF-7 cells” value in data set [4] was about 335. For the same molecule, in data set [4], the “selectivity index (SI) for the MDA-MB-231 cells” value was about 56. For the same molecule, the viability in the data set “in vitro” (0.1 μΜ) worked out at 95.4%; in the data set “in vitro” (1 μΜ), 84.3%; in the data set “in vitro” (10 μΜ), 63.5%; in the data set “in vitro” (100 μΜ), 69%.

For `CCCC(=O)N[C@H](C(=O)NCCCCNCCCNCCCN)[C@@H](C)O` [Compound 4], the IC50 in data set [1] (setting [6]) and in data set [2] (setting [7]) was over 400 µM in each case.

In the case of `CCCC(=O)N[C@H](C(=O)NCCCNCCCCNCCCN)[C@@H](C)O` [Compound 5], the IC50 in data set [1] (setting [6]) and in data set [2] (setting [7]) was over 400 µM throughout.

As to `NCCCNCCCCNCCCNC(=O)Cc1c[nH]c2ccccc12` [Compound 1], the IC50 in data set [1] (setting [6]) and in data set [2] (setting [7]) was over 200 µM each time.

For the molecule `NCCCCNC(=O)Cc1c[nH]c2ccccc12` [Compound 3], the IC50 came out at 107 µM in data set [1] (setting [8]), 170 µM in data set [1] (setting [6]), 272 ± 11.2 µM in data set [2] (setting [8]) and 272 µM in data set [2] (setting [7]).

In the case of `C#CC[C@H](NC(=O)c1ccc(C2(C(F)(F)F)N=N2)cc1)C(=O)NCCCCNCCCNCCCN` [Compound 9], the figures for the 50% inhibitory concentration (IC50) in data set [1] (setting [6]) and in data set [2] (setting [7]) were over 200 µM and 2.63 ± 1.58 µM, respectively.

For `CCCC(=O)N[C@@H](Cc1ccc(O)cc1)C(=O)NCCCCNCCCNCCCNCCCN` [Compound 8], the IC50 in data set [1] (setting [6]) and in data set [2] (setting [7]) was over 400 µM throughout.

Regarding `O=C(O)Cc1c[nH]c2ccccc12` [Compound 21, (indol-3-yl)acetic acid, reference compound], the IC50 in data set [1] (setting [6]) is 262 ± 42 µM; in data set [2] (setting [7]), 366 ± 73 µM.

With `CCCC(=O)N[C@@H](Cc1ccc(O)cc1)C(=O)NCCCNCCCCNCCCN` [Compound 6], the IC50 in data set [1] (Homo sapiens, MDA-MB-231, 24 h) is over 400 µM; in data set [2] (Homo sapiens, MCF7, 24 h), over 400 µM.

With `NCCCNCCCNCCCNCCCCNC(=O)Cc1c[nH]c2ccccc12` [HO-416b], the IC50 in data set [3] was 90 ± 12 nM; in data set [4], 97.2 µM; in data set [5], 3.98 ± 0.064 µM. Moreover, the “times less cytotoxic to the MDA-MB-231 cells than the MCF-7 cells” value in data set [1] was about 44 times. In addition, the “selectivity index (SI) for the MCF-7 cells” value in data set [4] is on record as about 1080. Moreover, the “selectivity index (SI) for the MDA-MB-231 cells” value in data set [4] was about 24. Besides, the “times more cytotoxic than Agel 416” value in data set [4] (MCF-12A cells) is given as about 1.9 times; in data set [2] (MCF-7 cells) it was about 6 times. The viability in “in vitro” (0.1 μΜ) came to 92.5%; in the data set “in vitro” (1 μΜ), 89.7%; in “in vitro” (10 μΜ) it was 77.5%; in “in vitro” (100 μΜ), 50.8%.

Broadly, the IC50 is the concentration at which inhibition is half-maximal. By viability is commonly meant the share of living cells, or the viability signal relative to a control.
